Laboratory results taken from US9795596B2, “Pharmaceutical diagnostic” (Novartis AG, priority 2012, dated 2017).

Experiments:
Type in all cases: biochemical, bovine
PI3Kα wildtype (wt) = molecular target: T1, PI3Kα wildtype (wt) (Bos taurus, UniProt P32871); test: Enzymatic HTRF assay, PI3Kα wild-type
T1 construct: His; made in house; host or cells: Sf9 insect cells (baculovirus co-infection)
Source text: The Phosphoinositide 3-kinase (PI3-Kinase or PI3K) Homogenous Time-Resolved (HTRF®) assay kit is purchased from Upstate (now Millipore Corporation, Billerica, Mass., USA). PIP2 and PiP3 is purchased from Avanti Polar Lipids (Alabaster, Ala., USA), microplates from Greiner (Frickenhausen, Germany; Catalog No. 781207). All other reagents are purchased from Sigma (St Louis, Mo., USA). […]
PI3K inhibitor (S)-Pyrrolidine-1,2-dicarboxylic acid 2-amide 1-({4-methyl-5-[2-(2,2,2-trifluoro-1,1-dimethyl-ethyl)-pyridin-4-yl]-thiazol-2-yl}-amide) (hereinafter “Compound I”) is diluted successively in Dimethyl sulfoxide (DMSO) and in buffer (final concentration: 2.5% DMSO). […] The plate is read using Tecan's GeniosPro® multilabel reader (from Tecan Group Ltd., Männedorf, Switzerland) in time-resolved fluorescence mode (Excitation filter: 340 nm; Emission filter 1: 620 nm; Emission filter 2: 665 nm; Mirror: dichroic2; Lag time: 150 μs; Integration time: 500 μs; 10 flashes).
(§1) The HTRF signal is determined according to the formula: HTRF signal=10000×(emission at 665 nm/emission at 620 nm). […]

PI3Kα Q859A mutant [1] = molecular target: T2, PI3Kα Q859A mutant (Bos taurus, UniProt P32871, Q859A); test: Enzymatic HTRF assay, PI3Kα Q859A mutant
T2 construct: His; made in house; host or cells: Sf9 insect cells (baculovirus co-infection)
T2 sequence (P32871 whole entry Q859A): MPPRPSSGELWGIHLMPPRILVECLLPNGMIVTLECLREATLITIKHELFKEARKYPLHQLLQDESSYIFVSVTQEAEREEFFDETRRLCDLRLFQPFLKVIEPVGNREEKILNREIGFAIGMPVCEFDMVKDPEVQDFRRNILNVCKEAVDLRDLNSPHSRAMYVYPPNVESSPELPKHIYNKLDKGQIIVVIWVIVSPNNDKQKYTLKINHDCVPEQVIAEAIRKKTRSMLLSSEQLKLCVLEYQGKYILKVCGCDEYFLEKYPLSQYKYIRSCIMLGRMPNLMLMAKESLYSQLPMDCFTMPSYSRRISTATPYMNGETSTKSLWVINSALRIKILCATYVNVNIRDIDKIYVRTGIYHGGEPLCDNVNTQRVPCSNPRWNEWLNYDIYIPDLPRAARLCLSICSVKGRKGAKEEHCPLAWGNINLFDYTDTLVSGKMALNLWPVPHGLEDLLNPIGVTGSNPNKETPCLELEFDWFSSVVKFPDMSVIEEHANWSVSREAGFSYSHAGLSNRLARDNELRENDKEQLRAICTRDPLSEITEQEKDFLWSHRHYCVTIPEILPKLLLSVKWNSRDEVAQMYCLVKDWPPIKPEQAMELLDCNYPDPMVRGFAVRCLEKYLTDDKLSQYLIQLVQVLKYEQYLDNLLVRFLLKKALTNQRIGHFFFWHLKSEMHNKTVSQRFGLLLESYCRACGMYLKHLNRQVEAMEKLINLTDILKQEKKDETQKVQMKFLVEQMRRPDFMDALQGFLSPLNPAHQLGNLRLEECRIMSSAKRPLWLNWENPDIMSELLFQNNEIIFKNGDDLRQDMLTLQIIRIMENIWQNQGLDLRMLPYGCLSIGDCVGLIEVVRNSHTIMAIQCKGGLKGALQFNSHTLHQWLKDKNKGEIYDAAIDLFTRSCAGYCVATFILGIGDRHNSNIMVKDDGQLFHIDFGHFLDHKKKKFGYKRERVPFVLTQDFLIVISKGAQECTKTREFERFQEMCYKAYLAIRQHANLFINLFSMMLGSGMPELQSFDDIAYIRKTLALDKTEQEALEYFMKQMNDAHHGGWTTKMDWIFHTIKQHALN
T2 sequence (P27986 whole entry partner): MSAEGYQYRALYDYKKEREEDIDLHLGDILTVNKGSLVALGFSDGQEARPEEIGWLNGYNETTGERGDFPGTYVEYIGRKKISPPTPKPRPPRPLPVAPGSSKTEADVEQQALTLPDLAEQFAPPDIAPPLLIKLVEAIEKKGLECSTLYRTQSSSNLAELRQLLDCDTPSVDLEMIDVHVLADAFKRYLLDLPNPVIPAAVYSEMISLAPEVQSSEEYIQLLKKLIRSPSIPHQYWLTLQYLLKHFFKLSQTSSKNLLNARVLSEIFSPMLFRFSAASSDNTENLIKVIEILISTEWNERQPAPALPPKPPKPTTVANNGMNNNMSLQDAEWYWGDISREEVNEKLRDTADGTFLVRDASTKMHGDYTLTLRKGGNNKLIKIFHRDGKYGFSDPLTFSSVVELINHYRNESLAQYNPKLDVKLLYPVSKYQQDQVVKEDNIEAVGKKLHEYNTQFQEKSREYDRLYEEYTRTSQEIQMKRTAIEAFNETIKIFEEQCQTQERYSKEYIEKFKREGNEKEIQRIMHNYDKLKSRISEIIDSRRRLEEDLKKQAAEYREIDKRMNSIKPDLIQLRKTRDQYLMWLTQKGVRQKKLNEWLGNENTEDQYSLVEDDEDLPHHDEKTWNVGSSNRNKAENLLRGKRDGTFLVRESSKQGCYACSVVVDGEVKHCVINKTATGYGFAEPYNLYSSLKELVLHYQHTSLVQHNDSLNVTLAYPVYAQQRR
Method: (§2) Mutagenesis to generate PI3Kα (p110α) mutant Q859A is performed with the QuikChange II Site-Directed Mutagenesis kit (Stratagene (cat. no 200523) and the oligonucleotides
(§3) The Phosphoinositide 3-kinase (PI3-Kinase or PI3K) Homogenous Time-Resolved (HTRF®) assay kit is purchased from Upstate (now Millipore Corporation, Billerica, Mass., USA). PIP2 and PiP3 is purchased from Avanti Polar Lipids (Alabaster, Ala., USA), microplates from Greiner (Frickenhausen, Germany; Catalog No. 781207). All other reagents are purchased from Sigma (St Louis, Mo., USA).
(§4) The enzymatic Homogenous Time-Resolved Fluorescense (HTRF®) assay (from Upstate (now Millipore Corporation, Billerica, Mass., USA) is performed essentially as described by Sugita et al. (2008), Biochem. Biophys. Res. Commun 377(3):941-5. PI3Kα (0.25-1.5 ng) is incubated for 60 minutes at room temperature in 20 μl buffer containing 10 mM MgCl2, 30 μM ATP, 20 μM 1,2-dioctanoyl-sn-glycero-3-phospho-(1′-myo-inositol-4′,5′-bisphosphate) (ammonium salt) (PIP2), 150 mM NaCl, 5 mM (dl-Dithiothreitol) DTT, and 25 mM Tris/HCl (pH 7.5) in 384-well white plates. The kinase reaction is initiated by adding ATP (30 μM) for inhibition studies and by adding PI3Kα for ATP kinetics (0-200 μM ATP).
(§5) PI3K inhibitor (S)-Pyrrolidine-1,2-dicarboxylic acid 2-amide 1-({4-methyl-5-[2-(2,2,2-trifluoro-1,1-dimethyl-ethyl)-pyridin-4-yl]-thiazol-2-yl}-amide) (hereinafter “Compound I”) is diluted successively in Dimethyl sulfoxide (DMSO) and in buffer (final concentration: 2.5% DMSO). The kinase reaction is stopped by addition of the HTRF reagents according to manufacturer's instructions. […] The plate is read using Tecan's GeniosPro® multilabel reader (from Tecan Group Ltd., Männedorf, Switzerland) in time-resolved fluorescence mode (Excitation filter: 340 nm; Emission filter 1: 620 nm; Emission filter 2: 665 nm; Mirror: dichroic2; Lag time: 150 μs; Integration time: 500 μs; 10 flashes).
as §1

PI3Kα Q859A mutant [2] = test: Enzymatic HTRF assay, PI3Kα Q859A mutant; details: IC50 Q859A / IC50 wildtype
Method: as §2, §3, §4, §5, §1

T1 sequence (P32871 whole entry): as the sequence (P32871 whole entry Q859A) above, with A859Q counted along it
T1 sequence (P27986 whole entry partner): as the sequence (P27986 whole entry partner) above

SMILES: Nc1ncnc2c1ncn2[C@@H]1O[C@H](COP(=O)(O)OP(=O)(O)OP(=O)(O)O)[C@@H](O)[C@H]1O [ATP, reference compound]
- Km (PI3Kα wildtype (wt); PI3K wild-type, 0-200 μM ATP, mean ± S.E. of 14 experiments, read-out: Michaelis constant (Km), ATP activation kinetics): 60 ± 6 µM
- Km (PI3Kα Q859A mutant [1]; PI3Kα Q859A mutant, 0-200 μM ATP, mean ± S.E. of 5 experiments, read-out: Michaelis constant (Km), ATP activation kinetics): 72 ± 8 µM

SMILES: Cc1nc(NC(=O)N2CCC[C@H]2C(N)=O)sc1-c1ccnc(C(C)(C)C(F)(F)F)c1 [Compound I, (S)-Pyrrolidine-1,2-dicarboxylic acid 2-amide 1-({4-methyl-5-[2-(2,2,2-trifluoro-1,1-dimethyl-ethyl)-pyridin-4-yl]-thiazol-2-yl}-amide)]
- IC50 (PI3Kα wildtype (wt); PI3Kα wild-type p110α/p85α, 30 μM ATP, 20 μM PIP2, 60 min, mean ± S.E. of 10 experiments): 8.4 ± 1 nM
- fold increase in the IC50, Q859A mutant versus wildtype (PI3Kα Q859A mutant [2]): 14.5 fold
- IC50 (PI3Kα Q859A mutant [1]; PI3Kα Q859A mutant p110α/p85α, 30 μM ATP, 20 μM PIP2, 60 min, mean ± S.E. of 7 experiments): 122 ± 28 nM
